Results on 14 compounds are retold here after patent US6586402B1, “LH-RH peptide analogues, their uses and pharmaceutical compositions containing them” (Laboratoire Theramex, priority 1997, dated 2003).

This assay deals with T1, LH-RH receptors (Rattus norvegicus, UniProt P30969).
T1 sequence (P30969 1-327): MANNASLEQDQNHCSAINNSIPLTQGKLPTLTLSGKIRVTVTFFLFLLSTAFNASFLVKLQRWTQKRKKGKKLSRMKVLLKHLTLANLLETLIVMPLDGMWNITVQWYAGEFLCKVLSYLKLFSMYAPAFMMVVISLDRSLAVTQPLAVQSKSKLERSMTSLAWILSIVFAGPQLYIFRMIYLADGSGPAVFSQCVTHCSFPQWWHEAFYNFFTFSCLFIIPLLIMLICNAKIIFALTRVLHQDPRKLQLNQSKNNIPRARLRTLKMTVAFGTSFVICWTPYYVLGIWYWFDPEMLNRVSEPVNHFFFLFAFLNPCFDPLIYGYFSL
Description: Stimulation of testosterone secretion in adult male rats after subcutaneous injection (agonist activity in vivo). Details: exert an agonist activity upon the LH-RH receptors in vivo; from tissue; host or cells: whole animal, adult male Sprague-Dawley rats; species or system Sprague-Dawley rats. Conditions: for Total plasma testosterone: 10 ng/kg subcutaneous in PBS, blood two hours later, male Sprague-Dawley rats; for agonistic potency in words: comment on Tables 2 and 3. On the procedure: The peptides according to the general formula (IIa) exert an agonist activity upon the LH-RH receptors in vivo, resulting in the stimulation of LH secretion by the pituitary, which, in males, stimulates the secretion of testosterone by the testis.
Two hours later, blood samples were drawn for total plasma testosterone determination by direct radioimmunoassay (Immunotech).
At this intermediate dose of 10 ng/kg, several examples with Npg^7 or Ada^7 in place of Leu^7 according to the invention were screened for agonistic activity (Tables 2 and 3). When available from Bachem (France) or Sigma (France), the corresponding standard agonist with Leu^7 was tested for comparison.

Entries after “also recorded” stand apart in the source; their conditions may differ. Square brackets hold non-standard residues; d marks the D form. Peptide text beside a SMILES is read from it. 1Nal = N[C@@H](Cc1cccc2ccccc12)C(=O)O; 2Nal = N[C@@H](Cc1ccc2ccccc2c1)C(=O)O; Bta = N[C@@H](Cc1csc2ccccc12)C(=O)O; tBuAla = CC(C)(C)C[C@H](N)C(=O)O; d3Pal = N[C@H](Cc1cccnc1)C(=O)O; d4Pal = N[C@H](Cc1ccncc1)C(=O)O; pGlu = O=C1CC[C@@H](C(=O)O)N1

Consider `CCNC(=O)[C@@H]1CCCN1C(=O)[C@H](CCCN=C(N)N)NC(=O)[C@H](CC(C)C)NC(=O)[C@@H](Cc1c[nH]c2ccccc12)NC(=O)[C@H](Cc1ccc(O)cc1)NC(=O)[C@H](CO)NC(=O)[C@H](Cc1c[nH]c2ccccc12)NC(=O)[C@H](Cc1cnc[nH]1)NC(=O)[C@@H]1CCC(=O)N1` [Deslorelin, reference compound], for which the Total plasma testosterone (Table 2, vehicle 2.7 ± 0.3) stood at 11.8 ± 3.5 nmol/L.

On to `CC(C)(C)C[C@H](NC(=O)CNC(=O)[C@H](Cc1ccc(O)cc1)NC(=O)[C@H](CO)NC(=O)[C@H](Cc1c[nH]c2ccccc12)NC(=O)[C@H](Cc1c[nH]cn1)NC(=O)[C@@H]1CCC(=O)N1)C(=O)N[C@@H](CCCNC(=N)N)C(=O)N1CCC[C@H]1C(=O)NCC(N)=O` [Example 1, pGlu-His-Trp-Ser-Tyr-Gly-Npg-Arg-Pro-Gly-NH2], for which, under “FIG. 1, various doses s.c., 8 animals per point”, the “activity in stimulating testosterone secretion relative to LH-RH” value was “a little more than twice as active as LH-RH”.

For the compound `CC(C)C[C@@H](NC(=O)[C@H](Cc1ccc(O)cc1)NC(=O)[C@H](CO)NC(=O)[C@H](Cc1c[nH]c2ccccc12)NC(=O)[C@H](Cc1c[nH]cn1)NC(=O)[C@@H]1CCC(=O)N1)C(=O)N[C@@H](CC(C)(C)C)C(=O)N[C@@H](CCCNC(=N)N)C(=O)N1CCC[C@H]1C(=O)NCC(N)=O` [Example 5, pGlu-His-Trp-Ser-Tyr-D-Leu-Npg-Arg-Pro-Gly-NH2] ([pGlu]HWSY[dL][tBuAla]RPG-NH2), for the setting “10 ng/kg s.c.”, the “agonistic potency in words” value was “range of potency similar to that of leuprorelin or tryptorelin”. Where the note is “Table 2, vehicle 2.7 ± 0.3”, this compound returned a Total plasma testosterone of 21.2 ± 6.6 nmol/L.

Turning to `CC(C)(C)C[C@H](NC(=O)[C@@H](Cc1c[nH]c2ccccc12)NC(=O)[C@H](Cc1ccc(O)cc1)NC(=O)[C@H](CO)NC(=O)[C@H](Cc1c[nH]c2ccccc12)NC(=O)[C@H](Cc1c[nH]cn1)NC(=O)[C@@H]1CCC(=O)N1)C(=O)N[C@@H](CCCNC(=N)N)C(=O)N1CCC[C@H]1C(=O)NCC(N)=O` [Example 11, pGlu-His-Trp-Ser-Tyr-D-Trp-Npg-Arg-Pro-Gly-NH2] ([pGlu]HWSY[dW][tBuAla]RPG-NH2), for the setting “10 ng/kg s.c.”, the “activity in stimulating testosterone secretion relative to the Leu^7 counterpart” value is given as “a little more than twice as active” and the “agonistic potency in words” value is reported as “Npg^7 led to more potent agonists than Ada^7”. In addition, for the setting “Table 2, vehicle 2.7 ± 0.3”, the Total plasma testosterone is 30.8 ± 3.5 nmol/L.

Regarding `CC(C)(C)C[C@H](NC(=O)[C@@H](Cc1cccnc1)NC(=O)[C@H](Cc1ccc(O)cc1)NC(=O)[C@H](CO)NC(=O)[C@H](Cc1c[nH]c2ccccc12)NC(=O)[C@H](Cc1c[nH]cn1)NC(=O)[C@@H]1CCC(=O)N1)C(=O)N[C@@H](CCCNC(=N)N)C(=O)N1CCC[C@H]1C(=O)NCC(N)=O` [Example 20, pGlu-His-Trp-Ser-Tyr-D-Pal-Npg-Arg-Pro-Gly-NH2] ([pGlu]HWSY[d3Pal][tBuAla]RPG-NH2), the “agonistic potency in words” value (10 ng/kg s.c.) is “range of potency similar to that of leuprorelin or tryptorelin”. The same compound came in with a Total plasma testosterone (Table 3, vehicle 4.3 ± 1.2) of 24.9 ± 5.0 nmol/L.

As to `CC(C)(C)C[C@H](NC(=O)[C@@H](Cc1ccncc1)NC(=O)[C@H](Cc1ccc(O)cc1)NC(=O)[C@H](CO)NC(=O)[C@H](Cc1c[nH]c2ccccc12)NC(=O)[C@H](Cc1c[nH]cn1)NC(=O)[C@@H]1CCC(=O)N1)C(=O)N[C@@H](CCCNC(=N)N)C(=O)N1CCC[C@H]1C(=O)NCC(N)=O` [Example 21, pGlu-His-Trp-Ser-Tyr-D-4Pal-Npg-Arg-Pro-Gly-NH2] ([pGlu]HWSY[d4Pal][tBuAla]RPG-NH2), the “agonistic potency in words” value (10 ng/kg s.c.) is “range of potency similar to that of leuprorelin or tryptorelin”. Where the note is “Table 3, vehicle 4.3 ± 1.2”, this compound had a Total plasma testosterone of 32.4 ± 7.0 nmol/L.

Consider `CCNC(=O)[C@@H]1CCCN1C(=O)[C@H](CCCNC(=N)N)NC(=O)[C@H](CC(C)(C)C)N(C)C(=O)[C@@H](CC(C)C)NC(=O)[C@H](Cc1ccc(O)cc1)NC(=O)[C@H](CO)NC(=O)[C@H](Cc1c[nH]c2ccccc12)NC(=O)[C@H](Cc1c[nH]cn1)NC(=O)[C@@H]1CCC(=O)N1` [Example 23, pGlu-His-Trp-Ser-Tyr-D-Leu-MeNpg-Arg-Pro-NEt], for which the “agonistic potency in words” value (10 ng/kg s.c.) is on record as “very strong agonistic activity; also recorded: more potent LH-RH agonists than current therapeutic LH-RH analogues”. The compound further had a Total plasma testosterone (Table 3, vehicle 4.3 ± 1.2) of 49.4 ± 4.6 nmol/L.

`CCNC(=O)[C@@H]1CCCN1C(=O)[C@H](CCCNC(=N)N)NC(=O)[C@H](CC(C)(C)C)NC(=O)[C@@H](CC(C)C)NC(=O)[C@H](Cc1ccc(O)cc1)NC(=O)[C@H](CO)NC(=O)[C@H](Cc1cccc2ccccc12)NC(=O)[C@H](Cc1c[nH]cn1)NC(=O)[C@@H]1CCC(=O)N1` [Example 24, pGlu-His-1Nal-Ser-Tyr-D-Leu-Npg-Arg-Pro-NEt] ([pGlu]H[1Nal]SY[dL][tBuAla]RP-NHEt): the Total plasma testosterone (Table 3, vehicle 4.3 ± 1.2) was 14.3 ± 4.3 nmol/L.

With `CCNC(=O)[C@@H]1CCCN1C(=O)[C@H](CCCNC(=N)N)NC(=O)[C@H](CC(C)(C)C)NC(=O)[C@@H](CC(C)C)NC(=O)[C@H](Cc1ccc(O)cc1)NC(=O)[C@H](CO)NC(=O)[C@H](Cc1ccc2ccccc2c1)NC(=O)[C@H](Cc1c[nH]cn1)NC(=O)[C@@H]1CCC(=O)N1` [Example 25, pGlu-His-2Nal-Ser-Tyr-D-Leu-Npg-Arg-Pro-NEt] ([pGlu]H[2Nal]SY[dL][tBuAla]RP-NHEt), the “agonistic potency in words” value (10 ng/kg s.c.) is “range of potency similar to that of leuprorelin or tryptorelin”. The compound further displayed a Total plasma testosterone (Table 3, vehicle 4.3 ± 1.2) of 27.3 ± 6.9 nmol/L.

With `CCNC(=O)[C@@H]1CCCN1C(=O)[C@H](CCCNC(=N)N)NC(=O)[C@H](CC(C)(C)C)NC(=O)[C@@H](CC(C)C)NC(=O)[C@H](Cc1ccc(O)cc1)NC(=O)[C@H](CO)NC(=O)[C@H](Cc1csc2ccccc12)NC(=O)[C@H](Cc1c[nH]cn1)NC(=O)[C@@H]1CCC(=O)N1` [Example 26, pGlu-His-Bal-Ser-Tyr-D-Leu-Npg-Arg-Pro-NEt] ([pGlu]H[Bta]SY[dL][tBuAla]RP-NHEt), the Total plasma testosterone (Table 3, vehicle 4.3 ± 1.2) was 12.2 ± 2.7 nmol/L.

For the setting “Table 2, vehicle 2.7 ± 0.3”, `CCNC(=O)[C@@H]1CCCN1C(=O)[C@H](CCCNC(=N)N)NC(=O)[C@H](CC(C)C)NC(=O)[C@@H](CC(C)C)NC(=O)[C@H](Cc1ccc(O)cc1)NC(=O)[C@H](CO)NC(=O)[C@H](Cc1c[nH]c2ccccc12)NC(=O)[C@H](Cc1c[nH]cn1)NC(=O)[C@@H]1CCC(=O)N1` [Leuprorelin, reference compound] returned a Total plasma testosterone of 33.5 ± 3.5 nmol/L.

`CC(C)C[C@H](NC(=O)[C@@H](Cc1c[nH]c2ccccc12)NC(=O)[C@H](Cc1ccc(O)cc1)NC(=O)[C@H](CO)NC(=O)[C@H](Cc1c[nH]c2ccccc12)NC(=O)[C@H](Cc1c[nH]cn1)NC(=O)[C@@H]1CCC(=O)N1)C(=O)N[C@@H](CCCNC(=N)N)C(=O)N1CCC[C@H]1C(=O)NCC(N)=O` [Tryptorelin, reference compound]: the Total plasma testosterone (Table 2, vehicle 2.7 ± 0.3) stood at 20.3 ± 2.5 nmol/L.

Compound `CCNC(=O)[C@@H]1CCCN1C(=O)[C@H](CCCNC(=N)N)NC(=O)[C@H](CC(C)C)NC(=O)[C@@H](C)NC(=O)[C@H](Cc1ccc(O)cc1)NC(=O)[C@H](CO)NC(=O)[C@H](Cc1c[nH]c2ccccc12)NC(=O)[C@H](Cc1c[nH]cn1)NC(=O)[C@@H]1CCC(=O)N1` [[D-Ala^6, Pro^9NEt]-LH-RH, reference compound] came in with a Total plasma testosterone (Table 2, vehicle 2.7 ± 0.3) of 30.6 ± 7.2 nmol/L.

The compound `CC(C)C[C@H](NC(=O)[C@@H](C)NC(=O)[C@H](Cc1ccc(O)cc1)NC(=O)[C@H](CO)NC(=O)[C@H](Cc1c[nH]c2ccccc12)NC(=O)[C@H](Cc1c[nH]cn1)NC(=O)[C@@H]1CCC(=O)N1)C(=O)N[C@@H](CCCNC(=N)N)C(=O)N1CCC[C@H]1C(=O)NCC(N)=O` [[D-Ala^6]-LH-RH, reference compound] displayed a Total plasma testosterone (Table 2, vehicle 2.7 ± 0.3) of 6.4 ± 1.9 nmol/L.
